Data on five substances can be found in patent US5876715A, “Antibodies that bind novel carbohydrate ligands (myelorollins) that cause E-selectin dependent cell rolling, and uses thereof” (The Biomembrane Institute, priority 1996, dated 1999).

“Also recorded” adds a separate entry of the source.

For the first assay, the system named is E-selectin-expressing CHO cells. The assay is described as follows: Static adhesion assay using 96-well plates coated with gangliosides. In kind it is cell-based, Chinese hamster. The following applies: static conditions; ganglioside coated on 96-well plates (25 to 200 ng); [3H]thymidine-labeled cells; control with mAb E1C. An excerpt:
Adhesion of E-selectin-expressing CHO cells to various quantities of poly-LacNAc gangliosides coated on 96-well plates (Falcon, Becton-Dickinson, Lincoln Park, N.J.). Points represent mean experimental minus control value in the presence of mAb E1C, ±SE of triplicate experiments. .circle-solid.SLe^x -Le^x, Δ Fr. 10-1, .tangle-solidup. Fr. 10-2, .quadrature. Fr. 9, .smallcircle. Fr. 12-2.
Static adhesion assay using 96-well plates: Poly-LacNAc gangliosides with SLe^x -Le^x structure and Frs. 9, 10-1, 10-2 and 12-2, dissolved in 50% ethanol, were serially diluted in 96-well plates (the first well contained 200 ng), and plates were dried at 37° C. for 5 hr. Plates with similar serial dilutions of poly-LacNAc gangliosides were prepared for control cell adhesion in the presence of mAb E1C (see above). E-selectin-expressing CHO cells (Handa et al., Int. J. Oncol. 6:773-781 (1995)) were metabolically labeled with [^3 H] thymidine and incubated for 2 days. Cell suspension (2×10^6 per mL) was prepared by 2 mM EDTA treatment of cultured cells. A 50 μL aliquot of this cell suspension (containing 1×10^5 cells; approximately 5000 cpm) was added to each well and incubated for 1 hr. As a control, EDTA-harvested cells were washed with DMEM and incubated with mAb E1C on ice for 30 min, followed by preparation of cell suspension as above, but containing 10 μg mAb E1C per mL. Aliquots were added to each well and incubated as above. Cells were washed 3× with PBS by inversion of the plate on blotting paper. Adherent cell count as measured by ^3 H activity was determined.
Additional details of the experiment whose data are shown in FIGS. 1A and 1B are as follows: SLe^x -Le^x and poly-LacNAc gangliosides (Frs. 7, 9, 10-1, 10-2, 12-2, 13-1 and 14) dissolved in 50% ethanol were appropriately diluted and coated on wells of 96-well plates (amounts of 25 to 200 ng as shown on abscissa). Wells were dried at 37° C. for 5 hr. Two identical plates (1 and 2) were prepared in this way. To each well of plate 1, 50 μL aliquots of RPMI containing 1×10^5 E-selectin-expressing CHO cells metabolically labeled with [^3 H] thymidine were added. To each well of plate 2, aliquots of the same cell preparation preincubated with anti-E-selectin mAb E1C (10 μg Ig per mL) and suspended in RPMI containing mAb E1C were added. Plates 1 and 2 were incubated for 25 min. and washed with PBS. […] Each well was filled with 200 μL of PBS, carefully shaken, and plates were inverted on blotting paper for 10 min. All non-adherent cells were sedimented and absorbed on the blotting paper. Adherent cells remaining on wells were counted. Cell numbers (expressed on ordinate) were calculated based on measured radioactivity. Solid circle, SLe^x -Le^x without E1C (from plate 1). Open circle, SLe^x -Le^x with E1C (from plate 2). Adhesion values from various poly-LacNAc gangliosides with and without E1C were all near zero and cannot be distinguished on the graph.
Static adhesion assay using 96-well plates: Poly-LacNAc gangliosides with SLe^x -Le^x structure, and Fr. 9, 10-1, 10-2, and 12-2, dissolved in 50% ethanol, were serially diluted in 96-well plates (the first well contained […]), and plates were dried at 37° C. for 5 hr. Plates with similar serial dilutions of poly-LacNAc gangliosides were prepared for control cell adhesion in the presence of mAb E1C […] (see above). E-selectin-expressing CHO cells (Handa et al., 1995, Int. J. Oncol. 6:773-781) were metabolically labeled with [^3 H]thymidine and incubated for 2 days. Cell suspension (2×10^6 per mL) was prepared by 2 mM EDTA treatment of cultured cells. A 50 μL aliquot of this cell suspension (containing 1×10^5 cells; about 5000 cpm) was added to each well and incubated for 1 hr. As a control, EDTA-harvested cells were washed with DMEM and incubated with mAb E1C (10 μg/ml) on ice for 30 min, followed by preparation of cell suspension as above, but containing 10 μg E1C per mL. Aliquots were added to each well and incubated as above. […]
“VIII^3 NeuAcIII^3 FucnLc8 Cer [Fr. 10-2]”: the “adhesion of E-selectin-expressing CHO cells” value is “little or no adhesion”.
The same measure, in the same setting: with VIII^3 NeuAcV^3 FucnLc8 Cer [Fr. 10-1] the entry was “little or no adhesion”.
Still for that read-out and setting: as for “VI^3 NeuAcV^3 FucIII^3 FucnLc6 Cer [SLe^x -Le^x, reference compound]”, the entry is “much stronger adhesion than myelorollin (Frs. 13-1 and 14); also recorded: capable of binding E-selectin expressing cells”.
Same read-out and setting: as for VI^3 NeuAcnLc6 Cer [Fr. 7], the entry is “little or no adhesion”; as for X^3 NeuAcVII^3 FucnLc10 Cer [Fr. 12-2], “little or no adhesion”.

Still in this assay, the particulars now being: static conditions; ganglioside coated on 96-well plates (25 to 200 ng); [3H]thymidine-labeled cells; control with mAb E1C; listed as SLE^x -Le^x.
For “VI^3 NeuAcV^3 FucIII^3 FucnLc6 Cer [SLe^x -Le^x, reference compound]”, the “adhesion of E-selectin-expressing CHO cells” value is reported as “bound to E-selectin”.
